# Reference: US20040086901A1, “Database for analyzing gene function and method of analyzing gene function by dspa” (priority 2000, published 2004)
# Key:
# Assay type in all cases: cell-based, mouse
# [1] = test system: NIH3T3 cells overexpressing caspase-3; test: MTT cell viability, caspase-3 overexpressing cells vs parental line; details: caspase-3 high-expressing cells / parental cell line, 3 to 4 days
# Procedure: (§1) With regard to the function-known genes, the genes shown in the left column of Table 2 were used. With regard to the drugs, those shown in Table 1 were dissolved in DMSO to an extent of 100-fold of the maximum concentration for the search of the drugs and used. With regard to the cells, incubated NIH3T3 or ras-NIH3T3 cells were used.
# (§2) Full-length cDNA of each function-known genes was incorporated into an expression vector (pRc-CMV, etc.) and transfected into NIH3T3 cells by a common method. Transformed cells were isolated using the resistance to G-418 as an index and the expression of the transfected gene in each cell was investigated by Western blotting method to select a highly expressing line.
# (§3) Cell viabilities were measured according to the following procedures.
# (§4) 1) From the 2nd to the 11th rows of a 96-well plate were filled with DMEM (50 μl). The 12th row was filled with 100 μl of DMEM.
# (§5) 2) The 1st row was filled with 98 μl of DMEM.
# (§6) 3) Drugs (2 μl each) were added into the 1st row.
# (§7) 4) Continuous double-dilution was conducted from the 1st to the 9th rows. Fifty μl were taken out from the 9th row and discarded. The plate was preserved in a CO2 incubator.
# (§8) 5) Cells (each high-expressing cells and the parental cell line) were detached from the medium using a trypsin solution, suspended in 10% CS-DMEM and transferred to a test tube and cell numbers (cell/ml) were counted.
# (§9) 6) The cells were diluted to a concentration of 1×10^5 cells/ml, and 50 μl of the cell suspension were added to the 1st to the 11th rows of the plate followed by gently stirring.
# (§10) 7) The plate was transferred to the CO2 incubator and incubated for 3 to 4 days.
# (§11) 8) MTT (5 mg/ml in PBS) (10 μl) was added to the 1st to the 12th rows of the plate and incubated in the CO2 incubator at 37° C. for 4 hours.
# (§12) 9) A reaction stop solution (0.04N HCl in isopropanol) (150 μl) was added followed by mixing well and being allowed to stand at room temperature for about 2 hours.
# (§13) 10) Coloration of formazan which was a metabolite of the MTT dye was measured using a microplate reader. The measurement wavelength was 574 nm and the reference wavelength was 655 nm. The 10th and the 11th rows of the plate were 100% controls and the 12th row was a 0% control.
# (§14) As an index for the sensitivity of highly gene-expressing cells and the parental cell line to various drugs, each of the IC40 values thereof was specified and ratios of the IC40 values were calculated. […] After that, logarithmic values of ratios of IC40 values were calculated from each gene.
# [2] = test system: NIH3T3 cells overexpressing cystatin E; test: MTT cell viability, cystatin E overexpressing cells vs parental line; details: cystatin E high-expressing cells / parental cell line, 3 to 4 days
# Procedure: as §1, §2, §3, §4, §5, §6, §7, §8, §9, §10, §11, §12, §13
# (§15) As an index for the sensitivity of highly gene-expressing cells and the parental cell line to various drugs, each of the IC40 values thereof was specified and ratios of the IC40 values were calculated. FIG. 2 and FIG. 3 are the examples where ratios of IC40 values were calculated from a curve showing the dependency on the concentration of the chemical versus the viability. After that, logarithmic values of ratios of IC40 values were calculated from each gene.
# [3] = test system: NIH3T3 cells overexpressing HNF1; test: MTT cell viability, HNF1 overexpressing cells vs parental line; details: HNF1 high-expressing cells / parental cell line, 3 to 4 days
# Procedure: as §1, §2, §3, §4, §5, §6, §7, §8, §9, §10, §11, §12, §13, §14
# [4] = test system: NIH3T3 cells overexpressing CBP8; test: MTT cell viability, CBP8 overexpressing cells vs parental line; details: CBP8 high-expressing cells / parental cell line, 3 to 4 days
# Procedure: as §1, §2, §3, §4, §5, §6, §7, §8, §9, §10, §11, §12, §13, §15
# [5] = test system: NIH3T3 cells overexpressing HSP4O; test: MTT cell viability, HSP4O overexpressing cells vs parental line; details: HSP4O high-expressing cells / parental cell line, 3 to 4 days
# Procedure: as §1, §2, §3, §4, §5, §6, §7, §8, §9, §10, §11, §12, §13, §15
# [6] = test system: NIH3T3 cells overexpressing DAN; test: MTT cell viability, DAN overexpressing cells vs parental line; details: DAN high-expressing cells / parental cell line, 3 to 4 days
# Procedure: as §1, §2, §3, §4, §5, §6, §7, §8, §9, §10, §11, §12, §13, §15
# [7] = test system: NIH3T3 cells overexpressing m-calpain; test: MTT cell viability, m-calpain overexpressing cells vs parental line; details: m-calpain high-expressing cells / parental cell line, 3 to 4 days
# Procedure: as §1, §2, §3, §4, §5, §6, §7, §8, §9, §10, §11, §12, §13, §14
# [8] = test system: NIH3T3 cells overexpressing PKCalpha-KN; test: MTT cell viability, PKCalpha-KN overexpressing cells vs parental line; details: 3 to 4 days
# Procedure: as §1, §2, §3, §4, §5, §6, §7, §8, §9, §10, §11, §12, §13, §14
# [9] = test system: NIH3T3 cells, TPA (PKC downreg); test: MTT cell viability, TPA (PKC downreg) cells vs parental line; details: 3 to 4 days
# Procedure: as §1, §2, §3, §4, §5, §6, §7, §8, §9, §10, §11, §12, §13, §15
# [10] = test system: NIH3T3 cells overexpressing N-ras; test: MTT cell viability, N-ras overexpressing cells vs parental line; details: N-ras high-expressing cells / parental cell line, 3 to 4 days
# Procedure: as §1, §2, §3, §4, §5, §6, §7, §8, §9, §10, §11, §12, §13, §15
# [11] = test system: NIH3T3 cells overexpressing STAT1; test: MTT cell viability, STAT1 overexpressing cells vs parental line; details: STAT1 high-expressing cells / parental cell line, 3 to 4 days
# Procedure: as §1, §2, §3, §4, §5, §6, §7, §8, §9, §10, §11, §12, §13, §14
# [12] = test system: NIH3T3 cells overexpressing PDGF-R-Del; test: MTT cell viability, PDGF-R-Del overexpressing cells vs parental line; details: PDGF-R-Del high-expressing cells / parental cell line, 3 to 4 days
# Procedure: as §1, §2, §3, §4, §5, §6, §7, §8, §9, §10, §11, §12, §13, §15
# [13] = test system: NIH3T3 cells overexpressing Ki-ras; test: MTT cell viability, Ki-ras overexpressing cells vs parental line; details: Ki-ras high-expressing cells / parental cell line, 3 to 4 days
# Procedure: as §1, §2, §3, §4, §5, §6, §7, §8, §9, §10, §11, §12, §13, §15
# [14] = test system: NIH3T3 cells overexpressing p16/INK4A; test: MTT cell viability, p16/INK4A overexpressing cells vs parental line; details: p16/INK4A high-expressing cells / parental cell line, 3 to 4 days
# Procedure: as §1, §2, §3, §4, §5, §6, §7, §8, §9, §10, §11, §12, §13, §15
# [15] = test system: NIH3T3 cells overexpressing HNF3b; test: MTT cell viability, HNF3b overexpressing cells vs parental line; details: HNF3b high-expressing cells / parental cell line, 3 to 4 days
# Procedure: as §1, §2, §3, §4, §5, §6, §7, §8, §9, §10, §11, §12, §13, §14
# [16] = test system: NIH3T3 cells overexpressing JNK-DN; test: MTT cell viability, JNK-DN overexpressing cells vs parental line; details: JNK-DN high-expressing cells / parental cell line, 3 to 4 days
# Procedure: as §1, §2, §3, §4, §5, §6, §7, §8, §9, §10, §11, §12, §13, §15
# [17] = test system: NIH3T3 cells overexpressing CP-antisense; test: MTT cell viability, CP-antisense cells vs parental line; details: 3 to 4 days
# Procedure: as §1, §2, §3, §4, §5, §6, §7, §8, §9, §10, §11, §12, §13, §15
# [18] = test system: NIH3T3 cells overexpressing calpastatin; test: MTT cell viability, calpastatin overexpressing cells vs parental line; details: calpastatin high-expressing cells / parental cell line, 3 to 4 days
# Procedure: as §1, §2, §3, §4, §5, §6, §7, §8, §9, §10, §11, §12, §13, §15
# [19] = test system: NIH3T3 cells overexpressing Ha-ras; test: MTT cell viability, drug sensitivity of Ha-ras overexpressing cells vs parental line; details: Ha-ras high-expressing cells / parental cell line, 3 to 4 days
# Procedure: as §1, §2, §3, §4, §5, §6, §7, §8, §9, §10, §11, §12, §13, §14
# [20] = test system: NIH3T3 cells overexpressing p38-DN; test: MTT cell viability, p38-DN overexpressing cells vs parental line; details: p38-DN high-expressing cells / parental cell line, 3 to 4 days
# Procedure: as §1, §2, §3, §4, §5, §6, §7, §8, §9, §10, §11, §12, §13, §14
# [21] = PKCalpha-KN (first of two lines) high-expressing cells / parental cell line
# [22] = PKCalpha-KN (second of two lines) high-expressing cells / parental cell line
Structure (SMILES),logarithmic value of ratio of IC40 values [1],logarithmic value of ratio of IC40 values [2],logarithmic value of ratio of IC40 values [3],logarithmic value of ratio of IC40 values [4],logarithmic value of ratio of IC40 values [5],logarithmic value of ratio of IC40 values [6],logarithmic value of ratio of IC40 values [7],"logarithmic value of ratio of IC40 values [8, 21]","logarithmic value of ratio of IC40 values [8, 22]",logarithmic value of ratio of IC40 values [9],logarithmic value of ratio of IC40 values [10],logarithmic value of ratio of IC40 values [11],logarithmic value of ratio of IC40 values [12],logarithmic value of ratio of IC40 values [13],logarithmic value of ratio of IC40 values [14],logarithmic value of ratio of IC40 values [15],logarithmic value of ratio of IC40 values [16],logarithmic value of ratio of IC40 values [17],logarithmic value of ratio of IC40 values [18],logarithmic value of ratio of IC40 values [19],other results
"Nc1nc2nc[nH]c2c(=S)[nH]1 [6-TG, 6-thioguanine]",1.16,0.00,0.46,0.38,0.50,0.64,0.29,0.26,0.38,0.00,−0.22,0.20,0.51,−0.30,0.46,0.03,0.00,0.14,−0.25,−0.19,
CN[C@@H]1C[C@H]2O[C@@](C)([C@@H]1OC)n1c3ccccc3c3c4c(c5c6ccccc6n2c5c31)C(=O)NC4 [Staurosporine],,0.40,,0.19,0.30,0.48,,,,−0.12,0.24,,0.28,0.38,−0.22,,0.14,−0.15,0.04,0.30,logarithmic value of ratio of IC40 values [20]: −0.05
CC(C)(C)C(=O)Oc1ccc(S(=O)(=O)Nc2ccccc2C(=O)NCC(=O)O)cc1 [compound 5046],0.40,0.36,0.05,0.12,−0.15,0.26,−0.04,0.10,−0.05,−0.10,0.23,0.05,−0.07,0.51,0.22,−0.25,−0.09,−0.06,−0.1,,logarithmic value of ratio of IC40 values [20]: −0.04
CN(C)CCCn1cc(C2=C(c3c[nH]c4ccccc34)C(=O)NC2=O)c2ccccc21 [GF109203X],0.82,0.27,0.345,0.16,−0.07,0.65,0.35,0.22,0.62,0.09,,0.41,0.91,−0.40,0.48,0.21,0.58,0.00,,−0.39,logarithmic value of ratio of IC40 values [20]: 0.58
